From US20210392895A1, “NOVEL OXADIAZOLES” (PI INDUSTRIES LIMITED, priority 2018, published 2021)

What follows are compounds tested on Phakopsora pachyrhizi (assay: Phakopsora pachyrhizi test in soybean (greenhouse, preventive activity, disease severity rating)). Conditions: preventive spray on soybean, compared to the untreated check.
Type: in vivo
Protocol: To test the preventive activity of compounds, healthy young soybean plants, raised in the greenhouse, were sprayed with the active compound solution at the stated application rates inside spray cabinets using hallowcone nozzles. One day after treatment, the plants were inoculated with a suspension containing 2.1×10^6 Phakopsora pachyrhizi spores. The inoculated plants were then kept in the greenhouse chamber at 25° C. temperature and 90% relative humidity for disease expression. A visual assessment of the compound's performance was carried out by rating the disease severity (0-100% scale) on treated plants on 3, 7, 10 and 15 days after application. Efficacy (% control) of the compounds was calculated by comparing the disease rating in the treatment with the one of the untreated control. The treated plants were also assessed for plant compatibility by recording symptoms like necrosis, chlorosis and stunting.

SMILES	pest or weed control at 500 ppm
CC(C)(C)OC(=O)N1CCC(Oc2cccc(-c3noc(C(F)(F)F)n3)c2)C1 (stereo not shown) [Compound 127, tert-butyl 3-(3-(5-(trifluoromethyl)-1,2,4-oxadiazol-3-yl)phenoxy)pyrrolidine-1-carboxylate]	> 70%
O=S(=O)(c1ccccc1F)N1CC[C@H](Oc2ccc(-c3noc(C(F)(F)F)n3)cn2)C1 [Compound 152, (S)-3-(6-((1-((2-fluorophenyl)sulfonyl)pyrrolidin-3-yl)oxy)pyridin-3-yl)-5-(trifluoromethyl)-1,2,4-oxadiazole]	> 70%
CN(C)c1ccc(C(=O)N2CC[C@H](Oc3ccc(-c4noc(C(F)(F)F)n4)cc3)C2)cc1 [Compound 8, (S)-(4-(dimethylamino)phenyl)(3-(4-(5-(trifluoromethyl)-1,2,4-oxadiazol-3-yl)phenoxy)pyrrolidin-1-yl)methanone]	> 70%
CC(C)(C)OC(=O)N1CC(N(c2ccc(-c3noc(C(F)(F)F)n3)cc2)c2ccc(-c3noc(C(F)(F)F)n3)cc2)C1 [Compound 82, tert-butyl 3-(bis(4-(5-(trifluoromethyl)-1,2,4-oxadiazol-3-yl)phenyl)amino)azetidine-1-carboxylate]	> 70%
COc1ccc(S(=O)(=O)N2CC[C@H](Oc3ccc(-c4noc(C(F)(F)F)n4)cn3)C2)cc1 [Compound 105, (S)-3-(6-((1-((4-methoxyphenyl)sulfonyl)pyrrolidin-3-yl)oxy)pyridin-3-yl)-5-(trifluoromethyl)-1,2,4-oxadiazole]	> 70%
O=C(c1cccc(Cl)c1)N1CCC(Oc2cccc(-c3noc(C(F)(F)F)n3)c2)C1 (stereo not shown) [Compound 144, (3-chlorophenyl)(3-(3-(5-(trifluoromethyl)-1,2,4-oxadiazol-3-yl)phenoxy)pyrrolidin-1-yl)methanone]	> 70%
CN(c1ccc(-c2noc(C(F)(F)F)n2)cc1)C1CN(C(=O)c2ccc(C(F)(F)F)cc2)C1 [Compound 101, (3-(methyl(4-(5-(trifluoromethyl)-1,2,4-oxadiazol-3-yl)phenyl)amino)azetidin-1-yl)(4-(trifluoromethyl)phenyl)methanone]	> 70%
CN(c1ccc(-c2noc(C(F)(F)F)n2)cc1)C1CN(C(=O)c2cccc(Cl)c2)C1 [Compound 88, (3-chlorophenyl)(3-(methyl(4-(5-(trifluoromethyl)-1,2,4-oxadiazol-3-yl)phenyl)amino)azetidin-1-yl)methanone]	> 70%
O=S(=O)(c1ccc(C(F)(F)F)cc1)N1CC[C@H](Oc2ccc(-c3noc(C(F)(F)F)n3)cn2)C1 [Compound 109, (S)-5-(trifluoromethyl)-3-(6-((1-((4-(trifluoromethyl)phenyl)sulfonyl)pyrrolidin-3-yl)oxy)pyridin-3-yl)-1,2,4-oxadiazole]	> 70%
O=C(c1cccc(F)c1)N1CC[C@H](Oc2ccc(-c3noc(C(F)(F)F)n3)c(F)c2)C1 [Compound 64, (S)-(3-(3-fluoro-4-(5-(trifluoromethyl)-1,2,4-oxadiazol-3-yl)phenoxy)pyrrolidin-1-yl)(3-fluorophenyl)methanone]	> 70%
COc1ccc(S(=O)(=O)N2CC[C@H](Oc3ccc(-c4noc(C(F)(F)F)n4)cc3)C2)cc1 [Compound 34, (S)-3-(4-((1-((4-methoxyphenyl)sulfonyl)pyrrolidin-3-yl)oxy)phenyl)-5-(trifluoromethyl)-1,2,4-oxadiazole]	> 70%
O=S(=O)(c1cccnc1)N1CC[C@H](Oc2ccc(-c3noc(C(F)(F)F)n3)cn2)C1 [Compound 153, (S)-3-(6-((1-(pyridin-3-ylsulfonyl)pyrrolidin-3-yl)oxy)pyridin-3-yl)-5-(trifluoromethyl)-1,2,4-oxadiazole]	> 70%
O=C(c1ccccc1)N1CCC(Oc2ccc(-c3noc(C(F)(F)F)n3)cc2)CC1 [Compound 81, phenyl(4-(4-(5-(trifluoromethyl)-1,2,4-oxadiazol-3-yl)phenoxy)piperidin-1-yl)methanone]	> 70%
N#Cc1ccc(S(=O)(=O)N2CC[C@H](Oc3ccc(-c4noc(C(F)(F)F)n4)cc3)C2)cc1 [Compound 121, (S)-4-((3-(4-(5-(trifluoromethyl)-1,2,4-oxadiazol-3-yl)phenoxy)pyrrolidin-1-yl)sulfonyl)benzonitrile]	> 70%
CCCS(=O)(=O)N1CC[C@H](Oc2ccc(-c3noc(C(F)(F)F)n3)cc2)C1 [Compound 115, (S)-3-(4-((1-(propylsulfonyl)pyrrolidin-3-yl)oxy)phenyl)-5-(trifluoromethyl)-1,2,4-oxadiazole]	> 70%
COc1ccc(C(=O)N2CC[C@H](Oc3ccc(-c4noc(C(F)(F)F)n4)cc3F)C2)cc1 [Compound 53, (S)-(3-(2-fluoro-4-(5-(trifluoromethyl)-1,2,4-oxadiazol-3-yl)phenoxy)pyrrolidin-1-yl)(4-methoxyphenyl)methanone]	> 70%

SMILES	pest or weed control at 500 ppm
O=C(c1ccc(C(F)(F)F)cc1)N1CCC(Oc2cccc(-c3noc(C(F)(F)F)n3)c2)C1 (stereo not shown) [Compound 143, (3-(3-(5-(trifluoromethyl)-1,2,4-oxadiazol-3-yl)phenoxy)pyrrolidin-1-yl)(4-(trifluoromethyl)phenyl)methanone]	> 70%
O=C(c1ccc(OC(F)(F)F)cc1)N1CC[C@H](Oc2ccc(-c3noc(C(F)(F)F)n3)cc2)C1 [Compound 36, (S)-(4-(trifluoromethoxy)phenyl)(3-(4-(5-(trifluoromethyl)-1,2,4-oxadiazol-3-yl)phenoxy)pyrrolidin-1-yl)methanone]	> 70%
O=C(c1cccc(F)c1)N1CC[C@H](Oc2ccc(-c3noc(C(F)(F)F)n3)nc2)C1 [Compound 30, (S)-(3-fluorophenyl)(3-((6-(5-(trifluoromethyl)-1,2,4-oxadiazol-3-yl)pyridin-3-yl)oxy)pyrrolidin-1-yl)methanone]	> 70%
CC(C)(C)OC(=O)N1CC[C@H](Oc2ccc(-c3noc(C(F)(F)F)n3)c(F)c2)C1 [Compound 62, tert-butyl (S)-3-(3-fluoro-4-(5-(trifluoromethyl)-1,2,4-oxadiazol-3-yl)phenoxy)pyrrolidine-1-carboxylate]	> 70%
CC(C)(C)OC(=O)N1CC[C@@H](Sc2ccc(-c3noc(C(F)(F)F)n3)cc2)C1 [Compound 157, tert-butyl (R)-3-((4-(5-(trifluoromethyl)-1,2,4-oxadiazol-3-yl)phenyl)thio)pyrrolidine-1-carboxylate]	> 70%
O=C(c1ccc(F)cc1)N1CCC(Oc2ccc(-c3noc(C(F)(F)F)n3)cc2)CC1 [Compound 142, (4-fluorophenyl)(4-(4-(5-(trifluoromethyl)-1,2,4-oxadiazol-3-yl)phenoxy)piperidin-1-yl)methanone]	> 70%
CC(C)(C)C(=O)N1CCC(Oc2cccc(-c3noc(C(F)(F)F)n3)c2)C1 (stereo not shown) [Compound 130, 2,2-dimethyl-1-(3-(3-(5-(trifluoromethyl)-1,2,4-oxadiazol-3-yl)phenoxy)pyrrolidin-1-yl)propan-1-one]	> 70%
N#Cc1ccc(S(=O)(=O)N2CC[C@H](Oc3ccc(-c4noc(C(F)(F)F)n4)cn3)C2)cc1 [Compound 150, (S)-4-((3-((5-(5-(trifluoromethyl)-1,2,4-oxadiazol-3-yl)pyridin-2-yl)oxy)pyrrolidin-1-yl)sulfonyl)benzonitrile]	> 70%
O=C(c1cccc(F)c1)N1CC[C@H](Oc2ccc(-c3noc(C(F)(F)F)n3)cc2F)C1 [Compound 54, (S)-(3-(2-fluoro-4-(5-(trifluoromethyl)-1,2,4-oxadiazol-3-yl)phenoxy)pyrrolidin-1-yl)(3-fluorophenyl)methanone]	> 70%
C[N+]1(C)CC[C@H](Oc2ccc(-c3noc(C(F)(F)F)n3)cn2)C1 [Compound 51, (S)-1,1-dimethyl-3-((5-(5-(trifluoromethyl)-1,2,4-oxadiazol-3-yl)pyridin-2-yl)oxy)pyrrolidin-1-ium 2,2,2-trifluoroacetate]	> 70%
O=S(=O)(c1cccc(F)c1)N1CC[C@H](Oc2ccc(-c3noc(C(F)(F)F)n3)cn2)C1 [Compound 149, (S)-3-(6-((1-((3-fluorophenyl)sulfonyl)pyrrolidin-3-yl)oxy)pyridin-3-yl)-5-(trifluoromethyl)-1,2,4-oxadiazole]	> 70%
O=C(c1ccccc1F)N1CC[C@H](Oc2ccc(-c3noc(C(F)(F)F)n3)c(F)c2)C1 [Compound 63, (S)-(3-(3-fluoro-4-(5-(trifluoromethyl)-1,2,4-oxadiazol-3-yl)phenoxy)pyrrolidin-1-yl)(2-fluorophenyl)methanone]	> 70%
CCCS(=O)(=O)N1CC[C@H](Oc2ccc(-c3noc(C(F)(F)F)n3)cn2)C1 [Compound 110, (S)-3-(6-((1-(propylsulfonyl)pyrrolidin-3-yl)oxy)pyridin-3-yl)-5-(trifluoromethyl)-1,2,4-oxadiazole]	> 70%
O=C(c1cccc(Br)c1)N1CC(Oc2ccc(-c3noc(C(F)(F)F)n3)cc2)C1 [Compound 16, (3-bromophenyl)(3-(4-(5-(trifluoromethyl)-1,2,4-oxadiazol-3-yl)phenoxy)azetidin-1-yl)methanone]	> 70%
O=S(=O)(c1ccccc1)N1CC[C@@H](Oc2ccc(-c3noc(C(F)(F)F)n3)cn2)C1 [Compound 71, (R)-3-(6-((1-(phenylsulfonyl)pyrrolidin-3-yl)oxy)pyridin-3-yl)-5-(trifluoromethyl)-1,2,4-oxadiazole]	> 70%
